Reference: patent US9274101B2 (BIOLOG, Inc., priority 2001, dated 2016)

What was measured:
[1] = test system: HepG2 cells; assay: HepG2 cells on flat bottom plastic wells, energy sources at a range of concentrations; format: cell-based, human; details: for activity at 30 µM / activity at 100 µM / activity at 330 µM / activity at 1000 µM / activity at 3300 µM / activity at 10000 µM / activity at 15000 µM / activity at 20000 µM: Homo sapiens, HepG2, 72 h, read-out: HepG2 Cells Responses After 72 hours in Culture and a 4 hour Color Development Period
Procedure: In this Example, methods for testing adherent cells for their ability to use multiple carbon sources are described. The human hepatocellular carcinoma cell line known as HepG2 (Knowles et al., Science, 209:497-499 [1980]) was chosen for this experiment. However, this application is not intended to be limited to the use of HepG2 cells, hepatocytes, carcinoma cells or even human cells.
HepG2 cells were grown in Falcon tissue culture flasks with vented tops. The culture medium used was Minimal Essential medium (MEM, Invitrogen 11095) with 1 g/L glucose, 2 mM L-glutamine, 2.2 g/L sodium bicarbonate, 10 mg/L phenol red, and supplemented with 0.1 mM Nonessential Amino Acids, 1 mM sodium pyruvate, 50 U/mL penicillin, 50 μg/mL streptomycin, and 10% (v/v) heat inactivated fetal bovine serum (HI FBS, Invitrogen 16140). The cells were seeded at 2×10^4/cm^2 and used 3 days after initiation of culture. During all incubations, the cells were kept in an atmosphere of 5% CO2, 90-100% humidity, and 37° C. Cells were harvested by trypsinization for 3 minutes in 0.25% trypsin-1 mM EDTA and resuspended in an equal volume of culture medium. A viable cell count was obtained by trypan blue exclusion and an appropriate volume of the cell suspension (to have 33% more viable cells than was sufficient for the experiment) was placed in a polypropylene centrifuge tube. Cells were pelleted by centrifugation at 350×g for 10 minutes at room temperature, resuspended in Dulbecco's Phosphate Buffered Saline (D-PBS, Invitrogen 14040) and centrifuged a second time. Cells were then resuspended to two-thirds the final volume needed in Dulbecco' ? s Modified Eagle's Medium (DME, Sigma D5030) containing 10% HI FBS and penicillin-streptomycin but without glucose, L-glutamine, sodium pyruvate, and phenol red. An aliquot was counted by trypan blue exclusion and the cell density was adjusted to 1.28×10^5/mL. Cells were plated in 100 μL/well in wells of standard, 96-well plates (4×10^4 cells/cm^2) and allowed to adhere overnight prior to addition of test chemicals.
For assay, the culture medium was aspirated, the wells were washed once with D-PBS and 170 μL of DME were added to each well, followed by 30 μL of the appropriate dilution of each test energy source. Stocks of 133 mM of each test chemical were prepared in tissue culture grade water, sterile filtered, and dilutions were prepared in a master plate so that, upon dilution into a regular 96-well MICROPLATE a total well volume of 200 μL, the final concentrations would be 0.033 to 20 mM. Negative control wells received 30 μL of tissue culture grade water. For each plate containing energy sources and cells, a second, control plate containing only energy sources was prepared. Plates were incubated at 5% CO2, 90-100% humidity, and 37° C. for 48 to 72 hours prior to addition of the MTS/PMS colorometric reagent (10 μL/well). The color formed in each well 4-24 hours after addition of the calorimetric reagent, was measured with a plate reader at 490 nm with a reference wavelength of 650 nm. OD values from the control plate were subtracted from the OD values obtained with cells prior to normalizing the data to % negative control (cells without added energy source).

[2] = test system: HL-60 cells; assay: Effect of 1 mM chloramphenicol on HL-60 energy utilization; format: cell-based, human; details: for Effect of 1 mM chloramphenicol on HL-60 Energy Utilization: negative control without chloramphenicol
Procedure: In this Example, methods for testing antimicrobial-induced modulation in growth of a cell are described. The antimicrobial selected for this Example is chloramphenicol. However, this application is not intended to be limited to the use of chloramphenicol, translation inhibitors or even antibiotics. HL-60 cells were cultured as described in Example 27.
After washing, HL-60 cells were resuspended in DME-R. An aliquot of the cell suspension was counted by trypan blue exclusion and the cell density was adjusted to 6.67×10^5[…]. Fifty μL of DME-R containing 3 mM chloramphenicol were added to each well of the appropriate number of half area, 96-well plates, followed by 25 μL of the appropriate dilution of each test energy source. Stocks of 133 mM of each test chemical were prepared in tissue culture grade water, sterile filtered, and dilutions were prepared in a master plate so that, upon dilution in a total volume of 150 μL, the final concentrations would be 0.033 to 20 mM. Negative control wells received 25 μL of tissue culture grade water. The cells were plated at a volume of 75 μL/well, giving a final cell density of 5×10^4/well. For each plate containing energy sources and cells, a second, control plate containing only energy sources was prepared. Plates were incubated at 5% CO2, 90-100% humidity, and 37° C. for 24 hours prior to addition of the MTS/MPMS colorimetric reagent (7.5 μL/well). The color formed in each well 24 hours after addition of the colorimetric reagent, was measured with a plate reader at 490 nm with a reference wavelength of 650 nm. OD values from the control plate were subtracted from the OD values obtained with cells prior to normalizing the data to % negative control.
Data shown in Table 25 are expressed as percent negative control without chloramphenicol. […] Chloramphenicol clearly has a different effect on the cells than citrate shown in Example 33.

[3] = energy source 0.03 mM with 1 mM chloramphenicol
[4] = energy source 0.10 mM with 1 mM chloramphenicol
[5] = energy source 0.33 mM with 1 mM chloramphenicol
[6] = energy source 1.00 mM with 1 mM chloramphenicol
[7] = energy source 3.3 mM with 1 mM chloramphenicol
[8] = energy source 10 mM with 1 mM chloramphenicol
[9] = energy source 15 mM with 1 mM chloramphenicol
[10] = energy source 20 mM with 1 mM chloramphenicol

Compound	HepG2 Cells Responses After 72 hours in Culture and a 4 hour Color Development Period ([1]; Conc. 0.03 mM)	HepG2 Cells Responses After 72 hours in Culture and a 4 hour Color Development Period ([1]; Conc. 0.10 mM)	HepG2 Cells Responses After 72 hours in Culture and a 4 hour Color Development Period ([1]; Conc. 0.33 mM)	HepG2 Cells Responses After 72 hours in Culture and a 4 hour Color Development Period ([1]; Conc. 1.00 mM)	Effect of 1 mM chloramphenicol on HL-60 Energy Utilization [2, 3]	Effect of 1 mM chloramphenicol on HL-60 Energy Utilization [2, 4]	Effect of 1 mM chloramphenicol on HL-60 Energy Utilization [2, 5]	Effect of 1 mM chloramphenicol on HL-60 Energy Utilization [2, 6]	Effect of 1 mM chloramphenicol on HL-60 Energy Utilization [2, 7]	Effect of 1 mM chloramphenicol on HL-60 Energy Utilization [2, 8]	Effect of 1 mM chloramphenicol on HL-60 Energy Utilization [2, 9]	Effect of 1 mM chloramphenicol on HL-60 Energy Utilization [2, 10]	activity at 30 µM ([1]; Conc. 0.03 mM) [%]	activity at 100 µM ([1]; Conc. 0.10 mM) [%]	activity at 330 µM ([1]; Conc. 0.33 mM) [%]	activity at 1000 µM ([1]; Conc. 1.00 mM) [%]	activity at 3300 µM ([1]; Conc. 3.3 mM) [%]	activity at 10000 µM ([1]; Conc. 10 mM) [%]	activity at 15000 µM ([1]; Conc. 15 mM) [%]	activity at 20000 µM ([1]; Conc. 20 mM) [%]	also measured
O=C1O[C@@H]([C@H](O)CO)[C@H](O)[C@H]1O [D-gal acid g-lactone]	111.3 % of negative control	142.3 % of negative control	164.7 % of negative control	162.9 % of negative control																	HepG2 Cells Responses After 72 hours in Culture and a 4 hour Color Development Period ([1]; Conc. 3.3 mM): 157.3 % of negative control; HepG2 Cells Responses After 72 hours in Culture and a 4 hour Color Development Period ([1]; Conc. 10 mM): 178.4 % of negative control; HepG2 Cells Responses After 72 hours in Culture and a 4 hour Color Development Period ([1]; Conc. 15 mM): 239.3 % of negative control; HepG2 Cells Responses After 72 hours in Culture and a 4 hour Color Development Period ([1]; Conc. 20 mM): 207.6 % of negative control
O=C[C@H](O)[C@@H](O)[C@@H](O)[C@H](O)C(=O)O [D-galacturonic acid]					0.2 % of negative control	−2.7 % of negative control	−4.6 % of negative control	−4.6 % of negative control	7.9 % of negative control	8.4 % of negative control	5.0 % of negative control	−12.8 % of negative control	124	140	171	177	165	179	228	162	
NC(=O)C[C@H](N)C(=O)O [L-asparagine]					6.3 % of negative control	17.4 % of negative control	7.6 % of negative control	3.1 % of negative control	12.1 % of negative control	22.9 % of negative control	20.9 % of negative control	30.2 % of negative control	122	190	203	173	161	124	112	52.2	
O=C1O[C@H]([C@@H](O)CO)[C@@H](O)[C@@H]1O [L-gal acid g-lactone]	121.2 % of negative control	127.4 % of negative control	196.4 % of negative control	164.1 % of negative control	−2.0 % of negative control	−8.4 % of negative control	4.3 % of negative control	−13.9 % of negative control	3.7 % of negative control	14.5 % of negative control	18.0 % of negative control	2.4 % of negative control									HepG2 Cells Responses After 72 hours in Culture and a 4 hour Color Development Period ([1]; Conc. 3.3 mM): 172.8 % of negative control; HepG2 Cells Responses After 72 hours in Culture and a 4 hour Color Development Period ([1]; Conc. 10 mM): 181.5 % of negative control; HepG2 Cells Responses After 72 hours in Culture and a 4 hour Color Development Period ([1]; Conc. 15 mM): 215.1 % of negative control; HepG2 Cells Responses After 72 hours in Culture and a 4 hour Color Development Period ([1]; Conc. 20 mM): 231.2 % of negative control
NC(=O)CC[C@H](N)C(=O)O [L-glutamine]					33.7 % of negative control	39.8 % of negative control	60.6 % of negative control	69.0 % of negative control	85.0 % of negative control	90.0 % of negative control	89.0 % of negative control	82.1 % of negative control	103	114	205	218	260	224	146	111	protective effect of energy source ([2]; in the presence of 1 mM chloramphenicol): limit the effect to maintenance of the cells at the level seen with no chloramphenicol and no added energy source; response in words ([1]; 0.033 to 20 mM, 72 hour culture): dose dependent response in the 72 hour culture up to 3.3 mM
